Laboratory results published in the supplement of paper PMC8671470.

How the values were obtained:
Conditions in all cases: 72 h
BV-173 [1] = system: BV-173
In short: (§1)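 Fifteen myeloid leukaemia lines in RPMI 1640 were treated for 72 h at 37 °C and 5% CO2 with five tenfold doses from 1 to 10,000 nM, in duplicate. ATP luminescence was normalised to vehicle and to a positive control at 10 µM, then fitted with a four-parameter log-logistic model. The IC50 came from these fits.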

HEL [2] = system: HEL
In short: as §1

HL-60 [3] = system: HL-60
In short: as §1

K-562 [4] = system: K-562
In short: as §1

KCL-22 [5] = system: KCL-22
In short: as §1

KG-1 [6] = system: KG-1
In short: as §1

KU-812 [7] = system: KU-812
In short: as §1

LAMA-84 [8] = system: LAMA-84
In short: as §1

ML-2 [9] = system: ML-2
In short: as §1

MOLM-13 [10] = system: MOLM-13
In short: as §1

MV4-11 [11] = system: MV4-11
In short: as §1

Mono-Mac-6 [12] = system: Mono-Mac-6
In short: as §1

NOMO-1 [13] = system: NOMO-1
In short: as §1

SHI-1 [14] = system: SHI-1
In short: as §1

THP-1 [15] = system: THP-1
In short: as §1

BV-173 [16] = test: cell viability (% survival relative to DMSO control, bortezomib = 0%); higher = less cytotoxic
In short: (§2)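 Fifteen myeloid leukaemia cell lines (10 AML, 5 CML) were seeded at a density titrated to the linear growth range into 384-well plates pre-printed with compounds at 1, 10, 100, 1000 or 10000 nM in duplicate. Plates were incubated for 72 h at 37 °C with 5% CO2. Viability was then read by CellTiter-Glo luminescence. Each value is percent survival averaged over the duplicates, with vehicle set to 100% and a 10 µM positive control to 0%.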

HEL [17] = test: as above
In short: as §2

HL-60 [18] = test: as above
In short: as §2

K-562 [19] = test: as above
In short: as §2

KCL-22 [20] = test: as above
In short: as §2

KG-1 [21] = test: as above
In short: as §2

KU-812 [22] = test: as above
In short: as §2

LAMA-84 [23] = test: as above
In short: as §2

ML-2 [24] = test: as above
In short: as §2

MOLM-13 [25] = test: as above
In short: as §2

MV4-11 [26] = test: as above
In short: as §2

Mono-Mac-6 [27] = test: as above
In short: as §2

NOMO-1 [28] = test: as above
In short: as §2

SHI-1 [29] = test: as above
In short: as §2

THP-1 [30] = test: as above
In short: as §2

O=C(c1c2ccccc2cc2ccccc12)N1CCC(N2CCC[C@@H](C(=O)N3CCOCC3)C2)CC1
Conditions	IC50 (cell viability) [µM]
BV-173 [1]	> 10
HEL [2]	> 10
HL-60 [3]	1.81
K-562 [4]	> 10
KCL-22 [5]	> 10
KG-1 [6]	> 10
KU-812 [7]	> 10
LAMA-84 [8]	> 10
ML-2 [9]	> 10
MOLM-13 [10]	2.77
MV4-11 [11]	8.82
Mono-Mac-6 [12]	> 10
NOMO-1 [13]	> 10
SHI-1 [14]	> 10
THP-1 [15]	> 10

cell viability [%]
Conditions	1 nM	10 nM	100 nM	1000 nM	10000 nM
BV-173 [16]	111	108	118	86.5	70.9
HEL [17]	106	108	110	77.3	94.7
HL-60 [18]	104	69.9	118	59.2	41.5
K-562 [19]	112	106	119	94.9	75.7
KCL-22 [20]	107	108	118	99.6	78.3
KG-1 [21]	110	102	111	94	85.6
KU-812 [22]	100	108	103	95.3	96
LAMA-84 [23]	109	108	105	94.5	86.5
ML-2 [24]	126	118	119	98.5	86.4
MOLM-13 [25]	122	103	109	62.4	53.7
MV4-11 [26]	133	110	97.3	78.8	62.3
Mono-Mac-6 [27]	101	109	93.4	89.1	75.8
NOMO-1 [28]	106	108	104	99.6	95.2
SHI-1 [29]	110	96.3	107	101	90
THP-1 [30]	106	96.6	115	94.9	100

c1ccc2nc(-c3nnc4sc(-c5cnccn5)nn34)ccc2c1
Conditions	IC50 (cell viability) [µM]
BV-173 [1]	> 10
HEL [2]	> 10
HL-60 [3]	> 10
K-562 [4]	> 10
KCL-22 [5]	> 10
KG-1 [6]	> 10
KU-812 [7]	> 10
LAMA-84 [8]	> 10
ML-2 [9]	> 10
MOLM-13 [10]	> 10
MV4-11 [11]	> 10
Mono-Mac-6 [12]	> 10
NOMO-1 [13]	> 10
SHI-1 [14]	> 10
THP-1 [15]	> 10

cell viability [%]
Conditions	1 nM	10 nM	100 nM	1000 nM	10000 nM
BV-173 [16]	103	105	103	100	96.1
HEL [17]	95.3	96	93.7	95.1	99.4
HL-60 [18]	108	100	102	67.9	103
K-562 [19]	110	105	107	108	105
KCL-22 [20]	97.3	109	109	105	95.7
KG-1 [21]	110	107	99.4	91.9	84.6
KU-812 [22]	105	115	94.9	91.8	95.7
LAMA-84 [23]	100	104	105	95.4	94.1
ML-2 [24]	108	122	111	86.5	110
MOLM-13 [25]	99.6	108	95.3	86.7	90.4
MV4-11 [26]	96.4	107	108	88	111
Mono-Mac-6 [27]	111	108	108	91.1	98.5
NOMO-1 [28]	106	109	99.5	93.7	101
SHI-1 [29]	108	107	116	91.9	98
THP-1 [30]	105	103	105	88.5	99.3

CC(C)(CS(=O)(=O)[O-])NC(=O)CC[N+](C)(C)CCO
Conditions	IC50 (cell viability) [µM]
BV-173 [1]	> 10
HEL [2]	> 10
HL-60 [3]	> 10
K-562 [4]	> 10
KCL-22 [5]	> 10
KG-1 [6]	> 10
KU-812 [7]	> 10
LAMA-84 [8]	> 10
ML-2 [9]	> 10
MOLM-13 [10]	> 10
MV4-11 [11]	> 10
Mono-Mac-6 [12]	> 10
NOMO-1 [13]	> 10
SHI-1 [14]	> 10
THP-1 [15]	> 10

cell viability [%]
Conditions	1 nM	10 nM	100 nM	1000 nM	10000 nM
BV-173 [16]	88.4	97.7	91.6	91.3	113
HEL [17]	101	106	93.8	98.8	104
HL-60 [18]	116	118	97.8	78.4	97.8
K-562 [19]	108	88.5	105	97.8	105
KCL-22 [20]	107	103	94.1	88.8	117
KG-1 [21]	97.4	114	93.6	94.4	118
KU-812 [22]	99.7	98.6	99.3	89.4	107
LAMA-84 [23]	88.8	96.6	100	91.3	106
ML-2 [24]	95.4	109	89.4	88.9	115
MOLM-13 [25]	121	112	97.2	82.3	117
MV4-11 [26]	104	101	99.8	95.6	114
Mono-Mac-6 [27]	86.8	105	90.1	91.6	105
NOMO-1 [28]	94.8	102	96	94.3	101
SHI-1 [29]	107	115	96.8	91.8	126
THP-1 [30]	101	102	99.5	93.2	120
